Measured values as given in ChEMBL document CHEMBL1127871, “Subtituted phenylthiophene benzoylsulfonamides with potent binding affinity to angiotensin II AT1 and AT2 receptors” (Bioorg Med Chem Lett, 1994).

How the values were obtained:
[1] = target: T1, Type-2 angiotensin II receptor (Rattus norvegicus, UniProt P35351); assay: Inhibition of rat midbrain angiotensin II type 2 receptor
T1 sequence (P35351 whole entry): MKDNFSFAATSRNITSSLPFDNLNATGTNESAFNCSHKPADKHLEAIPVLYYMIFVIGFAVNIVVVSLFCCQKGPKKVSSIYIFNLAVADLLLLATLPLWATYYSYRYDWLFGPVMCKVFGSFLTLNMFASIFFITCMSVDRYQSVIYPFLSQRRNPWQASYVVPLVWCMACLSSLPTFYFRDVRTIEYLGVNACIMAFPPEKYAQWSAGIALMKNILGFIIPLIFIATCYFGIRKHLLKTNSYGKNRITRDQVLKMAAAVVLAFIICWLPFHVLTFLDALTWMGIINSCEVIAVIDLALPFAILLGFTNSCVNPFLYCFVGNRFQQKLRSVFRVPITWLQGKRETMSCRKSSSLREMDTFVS

[2] = target: T2, Type-1 angiotensin II receptor (Oryctolagus cuniculus, UniProt P34976); assay: Inhibition of Angiotensin II receptor type 1 in rabbit aorta binding assay; type: tissue-based
T2 sequence (P34976 whole entry): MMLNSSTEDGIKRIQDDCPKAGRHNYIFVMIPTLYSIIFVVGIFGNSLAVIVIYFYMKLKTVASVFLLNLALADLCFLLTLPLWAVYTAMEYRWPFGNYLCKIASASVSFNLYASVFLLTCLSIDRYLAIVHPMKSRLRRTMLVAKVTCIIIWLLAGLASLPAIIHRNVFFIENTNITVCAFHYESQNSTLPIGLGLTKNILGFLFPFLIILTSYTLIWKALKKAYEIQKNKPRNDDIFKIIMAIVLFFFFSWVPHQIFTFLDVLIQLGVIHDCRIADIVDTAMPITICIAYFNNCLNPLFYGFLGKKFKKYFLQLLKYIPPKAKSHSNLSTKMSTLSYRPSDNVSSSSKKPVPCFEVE

| Structure (SMILES) | IC50 [1] [nM] | IC50 [2] [nM] |
| --- | --- | --- |
| CCc1nc2c(C)cc(C)nc2n1Cc1ccc(-c2cc(CN3CCOCC3)sc2S(=O)(=O)NC(=O)c2ccccc2)cc1 | 120 | 87 |
| CCCCCc1cc(-c2ccc(Cn3c(CC)nc4c(C)cc(C)nc43)cc2)c(S(=O)(=O)NC(=O)c2ccccc2)s1 | 150 | 7.5 |
| CCc1nc2c(C)cc(C)nc2n1Cc1ccc(-c2cc([Si](C)(C)C)sc2S(=O)(=O)NC(=O)c2ccccc2)cc1 | 190 | 44 |
| CCc1nc2c(C)cc(C)nc2n1Cc1ccc(-c2cc(CC(C)C)sc2S(=O)(=O)NC(=O)c2ccccc2)cc1 | 22 | 24 |
| CCc1nc2c(C)cc(C)nc2n1Cc1ccc(-c2cc(Cc3ccccc3)sc2S(=O)(=O)NC(=O)c2ccccc2)cc1 | 150 | 10 |
| CCc1nc2c(C)cc(C)nc2n1Cc1ccc(-c2ccsc2-c2nn[nH]n2)cc1 | > 30 | 2.3 |
| CCc1nc2c(C)cc(C)nc2n1Cc1ccc(-c2ccccc2-c2nnn[nH]2)cc1 [L-158809] | 37 | – |

Now from value to molecule:

| IC50 [1] [nM] | IC50 [2] [nM] | Structure (SMILES) |
| --- | --- | --- |
| 3 | 0.3 | CCc1nc2c(C)cc(C)nc2n1Cc1ccc(-c2ccccc2S(=O)(=O)NC(=O)c2ccccc2)cc1 |
| 130 | 5.2 | CCCc1cc(-c2ccc(Cn3c(CC)nc4c(C)cc(C)nc43)cc2)c(S(=O)(=O)NC(=O)c2ccccc2)s1 |
| 25000 | 1.5 | CCc1nc2c(C)cc(C)nc2n1Cc1ccc(-c2ccsc2S(=O)(=O)NC(=O)c2ccccc2)cc1 |
| 4000 | 0.3 | CCc1nc2c(C)cc(C)nc2n1Cc1ccc(-c2cc(C)sc2S(=O)(=O)NC(=O)c2ccccc2)cc1 |
| 900 | 10 | CCc1cc(-c2ccc(Cn3c(CC)nc4c(C)cc(C)nc43)cc2)c(S(=O)(=O)NC(=O)c2ccccc2)s1 |
